In patent US20060003974A1, “Bile acid derived steroidal dimers with amphiphilic topology having antiproliferative activity” (COUNCIL OF SCIENTIFIC AND INDUSTRIAL RESEARCH, priority 2004, published 2006):
pIC50: −log10 of the molar value.

Assays:
[1] = system: Human oral squamous carcinoma HEp-2; assay: MTT cell proliferation assay, HEp-2 cells; assay type: cell-based; conditions: for pIC50: Homo sapiens, 72 h treatment, MTT, read-out: IC50, reduction in proliferation
Description: (§1) Antiproliferative Activity, Materials and methods: Human oral squamous carcinoma HEp-2 and human mammary adenocarcinoma (MCF-7) cell lines were obtained from National Centre for Cell Science, Pune, India. Cells were maintained as a monolayer in nutrient media MEM supplemented with heat inactivated fetal bovine serum (HyClone, Utah, USA) (10%), penicillin (100 U/ml) and streptomycin (100 μg/ml) (Invitrogen Life Technologies, MD, USA). The cells were grown at 37° C. in 5% CO2 and humidified air atmosphere. Stock solutions of all the compounds were prepared in DMSO at a concentration of 10-11.5 mM and afterwards diluted to the required concentration. The 3-(4,5-dimethylthiazol-2-yl)-2,5-diphenyltetrazolium bromide (MTT) was dissolved (1 mg/ml) in MEM (without phenol red) and filtered through a Millipore filter, 0.22 μm, before use. MTT Cell Proliferation Assay: (HEp-2) and (MCF-7) cells were plated at a density of 15,000 cells per well in 96 well tissue culture plates. Cells were allowed to adhere for 24 h at 37° C. and then treated with various concentrations (0, 0.1, 1.0, and 10 μM) of compounds dissolved in DMSO for additional 72 h, in triplicates. In the control wells nutrient medium with correspondent concentration of DMSO only was added to the cells. Thereafter cell proliferation was assessed by replacing treatment medium with 50 μL media containing 1 mg/mL MTT and incubated for 4 h at 37° C. Medium was then aspirated off and formazan crystals were solubilized in […] of isopropanol. The optical density was read on a microplate reader at 570 nm using 630 nm as a reference filter against a blank prepared from cell free wells. Absorbance given by cells treated with the carrier DMSO alone was taken as 100% cell growth. All assays were performed in triplicates. Antiproliferative Activity. The antiproliferative activity of both the compounds 2 and 3 were tested against human cancer cells, HEp-2 and MCF-7 which were grown in vitro. Compound (2) up to a concentration of 10 μM had no effect on the survival of HEp-2 and MCF-7 cells. […] IC50 value for compound (2) was between 2-3 μM.

[2] = system: human mammary adenocarcinoma (MCF-7); assay: MTT cell proliferation assay, MCF-7 cells; assay type: cell-based; conditions: for pIC50: Homo sapiens, MCF7, 72 h treatment, MTT, read-out: IC50, reduction in proliferation
Description: as §1

Structure (SMILES) | reduction in proliferation ([1]; 0.1-10 μM, 72 h) | pIC50 [1] | growth inhibition at 10 μM ([1]; at 10 μM concentration, 72 h) | melting point [°C] | reduction in proliferation ([2]; 0.1-10 μM, 72 h) | pIC50 [2] | growth inhibition at 10 μM ([2]; at 10 μM concentration, 72 h) | effect on survival of cells ([1]; up to a concentration of 10 μM) | effect on survival of cells ([2]; up to a concentration of 10 μM)
C[C@H](CCC(=O)NCCNC(=O)CC[C@@H](C)[C@H]1CCC2C3CCC4C[C@H](O)CC[C@]4(C)C3C[C@H](O)[C@@]21C)[C@H]1CCC2C3CCC4C[C@H](O)CC[C@]4(C)C3C[C@H](O)[C@@]21C (stereo partly drawn) [Compound 3, N^1,N^2-Ethylenediamine bis [deoxycholic acid amide]] | significant reduction | 5.40 to 5.70 | totally inhibited | 170 | significant reduction | 5.40 to 5.70 | totally inhibited | – | –
C[C@H](CCC(=O)NCCNC(=O)CC[C@@H](C)[C@H]1CCC2C3C(C[C@H](O)[C@@]21C)[C@@]1(C)CC[C@@H](O)CC1C[C@H]3O)[C@H]1CCC2C3C(C[C@H](O)[C@@]21C)[C@@]1(C)CC[C@@H](O)CC1C[C@H]3O (stereo partly drawn) [Compound 2, N^1,N^2-Ethylenediamine bis [cholic acid amide]] | – | 5.52 to 5.70 | – | 205 | – | 5.52 to 5.70 | – | no effect | no effect
